The values below come from US12091426B2, “Bifunctional degraders of hematopoietic progenitor kinase and therapeutic uses thereof” (Nurix Therapeutics, Inc., priority 2021, dated 2024).

The experiment addresses T1, HPK1 (Homo sapiens, UniProt Q92918).
T1 construct: A HiBiT tag was introduced by CRISPR on the N terminus of HPK1 in Jurkat cells; host or cells: Jurkat cells (ATCC TIB-152), monoclonal line with CRISPR knock-in of HiBiT at the endogenous HPK1 locus
The experiment is described as follows: HPK1 Cellular HiBit Degradation Assay. It is filed as cell-based. The settings on record: HiBiT HPK1 Jurkat cells, 24 hrs; for DC50: concentration at which 50% of HPK1 was remaining, read-out: DC50 Category; for Dmax: Jurkat, maximum degradation vs DMSO vehicle control, read-out: Dmax Category. In outline:
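HPK1 levels are read by HiBiT luminescence after 24 h exposure of HiBiT-knock-in Jurkat cells to compound at 10 uM–0.1 nM final (11 points). Relative to DMSO (100%), DC50 is the concentration leaving 50% HPK1 from a variable-slope fit, and Dmax is 100 minus minimum remaining. Viability checked in-plate.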

Structures are written as SMILES. Bounds are passed on as bounds.

T1 sequence (Q92918 whole entry): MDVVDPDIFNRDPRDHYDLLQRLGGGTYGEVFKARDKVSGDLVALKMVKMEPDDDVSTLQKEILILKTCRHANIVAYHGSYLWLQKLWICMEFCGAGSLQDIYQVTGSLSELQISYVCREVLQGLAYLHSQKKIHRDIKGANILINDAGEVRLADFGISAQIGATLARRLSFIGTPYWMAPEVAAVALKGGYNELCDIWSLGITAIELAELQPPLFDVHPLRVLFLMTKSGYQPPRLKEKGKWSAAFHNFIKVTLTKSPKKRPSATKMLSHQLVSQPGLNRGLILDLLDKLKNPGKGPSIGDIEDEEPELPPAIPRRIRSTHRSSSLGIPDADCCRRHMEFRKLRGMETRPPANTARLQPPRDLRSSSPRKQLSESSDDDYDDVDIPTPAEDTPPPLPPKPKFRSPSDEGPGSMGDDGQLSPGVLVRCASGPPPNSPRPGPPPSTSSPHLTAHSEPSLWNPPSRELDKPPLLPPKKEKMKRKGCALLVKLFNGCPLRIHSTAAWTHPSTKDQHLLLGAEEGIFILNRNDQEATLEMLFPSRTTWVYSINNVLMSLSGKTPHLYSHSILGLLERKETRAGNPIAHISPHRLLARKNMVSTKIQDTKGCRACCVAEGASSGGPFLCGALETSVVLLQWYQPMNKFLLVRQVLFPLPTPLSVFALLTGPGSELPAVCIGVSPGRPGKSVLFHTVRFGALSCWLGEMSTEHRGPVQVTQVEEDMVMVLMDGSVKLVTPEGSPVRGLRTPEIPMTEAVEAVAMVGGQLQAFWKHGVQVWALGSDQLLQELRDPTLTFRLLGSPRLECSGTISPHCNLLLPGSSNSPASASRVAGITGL

Turning to `CC(C)n1cnc2cc(-c3ccc4c(c3)N([C@H]3C[C@@H](N5CCCCC5)C3)C(=O)C43CCN(C(=O)C4CCN(C(=O)C5CCN(c6ccc(C7CCC(=O)NC7=O)nn6)CC5)CC4)CC3)nc(NC3CC3)c21` (mixture of isomers) [Example 236, (3RS)-3-(6-{4-[4-({6-[4-(cyclopropylamino)-3-(propan-2-yl)-3H-imidazo[4,5-c]pyridin-6-yl]-2-oxo-1-[(1S,3S)-3-(piperidin-1-yl)cyclobutyl]-1,2-dihydrospiro[indole-3,4′-piperidin]-1′-yl}carbonyl)piperidine-1-carbonyl]piperidin-1-yl}pyridazin-3-yl)piperidine-2,6-dione], the DC50 is less than 100 nM and the Dmax was 70 to 85%.
Consider `CC(C)n1cnc2cc(-c3ccc4c(c3)N([C@H]3C[C@@H](N5CCCCC5)C3)C(=O)C43CCN(C(=O)C4CCN(C(=O)[C@H]5CC[C@H](Nc6ccc(C7CCC(=O)NC7=O)cc6)CC5)CC4)CC3)nc(Nc3ccncc3F)c21` (mixture of isomers) [Example 55, (3RS)-3-(4-{[(1R,4R)-4-{4-[(6-{4-[(3-Fluoropyridin-4-yl)amino]-3-(propan-2-yl)-3H-imidazo[4,5-c]pyridin-6-yl}-2-oxo-1-[(1S,3S)-3-(piperidin-1-yl)cyclobutyl]-1,2-dihydrospiro[indole-3,4′-piperidin]-1′-yl)carbonyl]piperidine-1-carbonyl}cyclohexyl]amino}phenyl)piperidine-2,6-dione], for which the DC50 lay within 100 to 500 nM and the Dmax lay within 50 to 70%.
Regarding `CC(C)n1cnc2cc(-c3ccc4c(c3)N([C@H]3C[C@@H](N5CCCCC5)C3)C(=O)C43CCN(C(=O)C4CCN(C(=O)[C@H]5CC[C@H](C(=O)N6CCc7cc(N8CCC(=O)NC8=O)ccc7C6)CC5)CC4)CC3)nc(Nc3ccccc3F)c21` [Example 49, 1-{2-[(1R,4R)-4-{4-[(6-{4-[(2-fluorophenyl)amino]-3-(propan-2-yl)-3H-imidazo[4,5-c]pyridin-6-yl}-2-oxo-1-[(1S,3S)-3-(piperidin-1-yl)cyclobutyl]-1,2-dihydrospiro[indole-3,4′-piperidin]-1′-yl)carbonyl]piperidine-1-carbonyl}cyclohexanecarbonyl]-1,2,3,4-tetrahydroisoquinolin-6-yl}-1,3-diazinane-2,4-dione], the DC50 was 100 to 500 nM and the Dmax lay in the range of 50 to 70%.
Consider `CC(C)n1cnc2cc(-c3ccc4c(c3)N([C@H]3C[C@@H](N5CCCCC5)C3)C(=O)C43CCN(C(=O)C4CCN(C(=O)C5CCN(c6ccc(C7CCC(=O)NC7=O)cc6)CC5)CC4)CC3)nc(Nc3ccccc3F)c21` (mixture of isomers) [Example 67, (3RS)-3-[4-(4-{4-[(6-{4-[(2-fluorophenyl)amino]-3-(propan-2-yl)-3H-imidazo[4,5-c]pyridin-6-yl}-2-oxo-1-[(1S,3S)-3-(piperidin-1-yl)cyclobutyl]-1,2-dihydrospiro[indole-3,4′-piperidin]-1′-yl)carbonyl]piperidine-1-carbonyl}piperidin-1-yl)phenyl]piperidine-2,6-dione], for which the 50% degradation concentration (DC50) was less than 100 nM and the Dmax fell in the range of 70 to 85%.
Consider `CC(C)n1cnc2cc(-c3ccc4c(c3)N([C@H]3C[C@@H](N5CCCCC5)C3)C(=O)C43CCN(C(=O)C4(C)CCN(C(=O)C5CCN(c6ccc(C7CCC(=O)NC7=O)cn6)CC5)CC4)CC3)nc(OC3CC3)c21` (stereo partly drawn) [Example 178, 3-(6-{4-[4-({6-[4-cyclopropoxy-3-(propan-2-yl)-3H-imidazo[4,5-c]pyridin-6-yl]-2-oxo-1-[(1S,3S)-3-(piperidin-1-yl)cyclobutyl]-1,2-dihydrospiro[indole-3,4′-piperidin]-1′-yl}carbonyl)-4-methylpiperidine-1-carbonyl]piperidin-1-yl}pyridin-3-yl)piperidine-2,6-dione], for which the DC50 was less than 100 nM and the Dmax was greater than 85%.
Take `CC(C)n1cnc2cc(-c3ccc4c(c3)N([C@H]3C[C@@H](N5CCCCC5)C3)C(=O)C43CCN(C(=O)[C@@H]4CCN(C(=O)[C@H]5CC[C@H](Nc6cccc7c6C(=O)N(C6CCC(=O)NC6=O)C7=O)CC5)C4)CC3)nc(Nc3ccccc3F)c21` (mixture of isomers) [Example 9, 2-[(3RS)-2,6-dioxopiperidin-3-yl]-4-{[(1R,4R)-4-[(3R)-3-[(6-{4-[(2-fluorophenyl)amino]-3-(propan-2-yl)-3H-imidazo[4,5-c]pyridin-6-yl}-2-oxo-1-[(1S,3S)-3-(piperidin-1-yl)cyclobutyl]-1,2-dihydrospiro[indole-3,4′-piperidin]-1′-yl)carbonyl]pyrrolidine-1-carbonyl]cyclohexyl]amino}-2,3-dihydro-1H-isoindole-1,3-dione]: the DC50 fell in the range of 100 to 500 nM and the Dmax is greater than 85%.
As for `CC(C)n1cnc2cc(-c3ccc4c(c3)N([C@H]3C[C@@H](N5CCCCC5)C3)C(=O)C43CCN(C(=O)C4(C)CCN(C(=O)C5CCN(c6ccc(C7CCC(=O)NC7=O)cc6)CC5)CC4)CC3)nc(Nc3ccncc3F)c21` (mixture of isomers) [Example 112, (3RS)-3-[4-(4-{4-[(6-{4-[(3-fluoropyridin-4-yl)amino]-3-(propan-2-yl)-3H-imidazo[4,5-c]pyridin-6-yl}-2-oxo-1-[(1S,3S)-3-(piperidin-1-yl)cyclobutyl]-1,2-dihydrospiro[indole-3,4′-piperidin]-1′-yl)carbonyl]-4-methylpiperidine-1-carbonyl}piperidin-1-yl)phenyl]piperidine-2,6-dione], the DC50 was less than 100 nM and the Dmax was 70 to 85%.
For `Cc1cc(F)c(Nc2nc(-c3ccc4c(c3)N([C@H]3C[C@@H](N5CCCCC5)C3)C(=O)C43CCN(C(=O)CC4CCN(C(=O)C5CCN(C(=O)CNc6cccc7c6C(=O)N(C6CCC(=O)NC6=O)C7=O)CC5)CC4)CC3)cc3ncn(C(C)C)c23)cc1C(=O)NC(C)C` (mixture of isomers) [Example 99, 5-[(6-{1′-[2-(1-{1-[2-({2-[(3RS)-2,6-dioxopiperidin-3-yl]-1,3-dioxo-2,3-dihydro-1H-isoindol-4-yl}amino)acetyl]piperidine-4-carbonyl}piperidin-4-yl)acetyl]-2-oxo-1-[(1S,3S)-3-(piperidin-1-yl)cyclobutyl]-1,2-dihydrospiro[indole-3,4′-piperidin]-6-yl}-3-(propan-2-yl)-3H-imidazo[4,5-c]pyridin-4-yl)amino]-4-fluoro-2-methyl-N-(propan-2-yl)benzamide], the DC50 was 500 to 1000 nM and the Dmax is 50 to 70%.
With `CC(C)n1cnc2cc(-c3ccc4c(c3)N([C@H]3C[C@@H](N5CCCCC5)C3)C(=O)C43CCN(C(=O)C4(C)CCN(C(=O)[C@H]5CC[C@H](N(C)c6ccc(C7CCC(=O)NC7=O)cc6)CC5)CC4)CC3)nc(NC3CC3)c21` (mixture of isomers) [Example 150, (3RS)-3-(4-{methyl[(1R,4R)-4-[4-({6-[4-(cyclopropylamino)-3-isopropylimidazo[4,5-c]pyridin-6-yl]-2-oxo-1-[(1S,3S)-3-(piperidin-1-yl)cyclobutyl]spiro[indole-3,4′-piperidin]-1′-yl}carbonyl)-4-methylpiperidine-1-carbonyl]cyclohexyl]amino}phenyl)piperidine-2,6-dione], the DC50 was 100 to 500 nM and the Dmax fell in the range of 50 to 70%.
Take `CC(C)n1cnc2cc(-c3ccc4c(c3)N([C@H]3C[C@@H](N5CCCCC5)C3)C(=O)C43CCN(C(=O)C45CCC(C)(C4)N(C(=O)C4CCN(c6ccc(C7CCC(=O)NC7=O)cn6)CC4)C5)CC3)nc(NC3CC3)c21` (mixture of isomers) [Example 251, (3RS)-3-(6-{4-[4-({6-[4-(cyclopropylamino)-3-(propan-2-yl)-3H-imidazo[4,5-c]pyridin-6-yl]-2-oxo-1-[(1S,3S)-3-(piperidin-1-yl)cyclobutyl]-1,2-dihydrospiro[indole-3,4′-piperidin]-1′-yl}carbonyl)-1-methyl-2-azabicyclo[2.2.1]heptane-2-carbonyl]piperidin-1-yl}pyridin-3-yl)piperidine-2,6-dione]: the DC50 was less than 100 nM and the Dmax was in the range of 50 to 70%.
For `CC(C)n1cnc2cc(-c3ccc4c(c3)N([C@H]3C[C@@H](N5C6CCC5COC6)C3)C(=O)C43CCN(C(=O)C4(C)CCN(C(=O)[C@H]5CC[C@H](Oc6ccc(C7CCC(=O)NC7=O)cc6)CC5)CC4)CC3)nc(NC3CC3)c21` (mixture of isomers) [Example 193, (3RS)-3-(4-{[(1R,4R)-4-[4-({6-[4-(cyclopropylamino)-3-(propan-2-yl)-3H-imidazo[4,5-c]pyridin-6-yl]-2-oxo-1-[(1S,3S)-3-{3-oxa-8-Azabicyclo[3.2.1]octan-8-yl}cyclobutyl]-1,2-dihydrospiro[indole-3,4′-piperidin]-1′-yl}carbonyl)-4-methylpiperidine-1-carbonyl]cyclohexyl]oxy}phenyl)piperidine-2,6-dione] the same measures were 100 to 500 nM and 50 to 70%.
The like results for `CC(C)n1cnc2cc(-c3ccc4c(c3)N([C@H]3C[C@@H](N5CCCCC5)C3)C(=O)C43CCN(C(=O)[C@@H]4CCN(C(=O)[C@H]5CC[C@H](Oc6ccc(N7CCC(=O)NC7=O)cn6)CC5)C4)CC3)nc(Nc3ccccc3F)c21` [Example 21, 1-(6-{[(1R,4R)-4-[(3R)-3-[(6-{4-[(2-fluorophenyl)amino]-3-(propan-2-yl)-3H-imidazo[4,5-c]pyridin-6-yl}-2-oxo-1-[(1S,3S)-3-(piperidin-1-yl)cyclobutyl]-1,2-dihydrospiro[indole-3,4′-piperidin]-1′-yl)carbonyl]pyrrolidine-1-carbonyl]cyclohexyl]oxy}pyridin-3-yl)-1,3-diazinane-2,4-dione] were, in that order, less than 100 nM and greater than 85%.
